Calls of active or inactive are those of the source. No cut-off for these calls is given here.

In data set [1] the target is T1, Toll-like receptor 7 (Homo sapiens) (UniProt Q9NYK1).
T1 sequence (whole entry): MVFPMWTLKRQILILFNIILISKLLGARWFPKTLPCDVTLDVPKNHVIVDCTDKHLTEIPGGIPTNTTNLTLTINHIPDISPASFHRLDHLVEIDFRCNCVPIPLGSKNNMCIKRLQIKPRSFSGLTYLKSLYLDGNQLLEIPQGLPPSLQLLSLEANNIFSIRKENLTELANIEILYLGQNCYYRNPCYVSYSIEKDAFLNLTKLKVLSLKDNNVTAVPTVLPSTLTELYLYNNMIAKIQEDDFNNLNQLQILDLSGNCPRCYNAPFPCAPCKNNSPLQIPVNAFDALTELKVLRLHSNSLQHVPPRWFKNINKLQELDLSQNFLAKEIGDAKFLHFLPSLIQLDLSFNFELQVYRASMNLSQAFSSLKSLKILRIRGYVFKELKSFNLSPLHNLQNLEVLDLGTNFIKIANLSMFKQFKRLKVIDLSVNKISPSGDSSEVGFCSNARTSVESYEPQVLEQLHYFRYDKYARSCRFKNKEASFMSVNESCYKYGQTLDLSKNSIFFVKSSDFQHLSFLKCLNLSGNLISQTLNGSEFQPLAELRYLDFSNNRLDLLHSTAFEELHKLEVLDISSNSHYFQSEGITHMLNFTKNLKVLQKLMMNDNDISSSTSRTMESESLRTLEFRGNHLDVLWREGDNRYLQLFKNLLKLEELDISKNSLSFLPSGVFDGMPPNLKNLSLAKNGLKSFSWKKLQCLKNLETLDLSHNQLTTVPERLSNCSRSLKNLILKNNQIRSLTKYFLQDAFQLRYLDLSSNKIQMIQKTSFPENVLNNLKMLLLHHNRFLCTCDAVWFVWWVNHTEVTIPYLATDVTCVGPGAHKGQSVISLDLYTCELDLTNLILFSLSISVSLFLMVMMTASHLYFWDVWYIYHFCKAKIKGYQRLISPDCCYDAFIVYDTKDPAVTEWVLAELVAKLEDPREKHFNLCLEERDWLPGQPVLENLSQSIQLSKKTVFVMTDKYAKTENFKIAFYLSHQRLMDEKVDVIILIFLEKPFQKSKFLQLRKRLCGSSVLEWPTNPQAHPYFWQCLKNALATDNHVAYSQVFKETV
The data set is described as follows: Activation of human TLR7 expressed in HEK293 cells assessed as increase in NF-kappaB activation at 100 ug/ml by SEAP assay. In kind it is cell-based.

The nature of data set [2]: Stability in 1% human serum assessed as full length product after 10 mins. Type of data set: ADME, cell-free.
In data set [3] the target is T2, Toll-like receptor 8 (Homo sapiens) (UniProt Q9NR97).
T2 sequence (whole entry): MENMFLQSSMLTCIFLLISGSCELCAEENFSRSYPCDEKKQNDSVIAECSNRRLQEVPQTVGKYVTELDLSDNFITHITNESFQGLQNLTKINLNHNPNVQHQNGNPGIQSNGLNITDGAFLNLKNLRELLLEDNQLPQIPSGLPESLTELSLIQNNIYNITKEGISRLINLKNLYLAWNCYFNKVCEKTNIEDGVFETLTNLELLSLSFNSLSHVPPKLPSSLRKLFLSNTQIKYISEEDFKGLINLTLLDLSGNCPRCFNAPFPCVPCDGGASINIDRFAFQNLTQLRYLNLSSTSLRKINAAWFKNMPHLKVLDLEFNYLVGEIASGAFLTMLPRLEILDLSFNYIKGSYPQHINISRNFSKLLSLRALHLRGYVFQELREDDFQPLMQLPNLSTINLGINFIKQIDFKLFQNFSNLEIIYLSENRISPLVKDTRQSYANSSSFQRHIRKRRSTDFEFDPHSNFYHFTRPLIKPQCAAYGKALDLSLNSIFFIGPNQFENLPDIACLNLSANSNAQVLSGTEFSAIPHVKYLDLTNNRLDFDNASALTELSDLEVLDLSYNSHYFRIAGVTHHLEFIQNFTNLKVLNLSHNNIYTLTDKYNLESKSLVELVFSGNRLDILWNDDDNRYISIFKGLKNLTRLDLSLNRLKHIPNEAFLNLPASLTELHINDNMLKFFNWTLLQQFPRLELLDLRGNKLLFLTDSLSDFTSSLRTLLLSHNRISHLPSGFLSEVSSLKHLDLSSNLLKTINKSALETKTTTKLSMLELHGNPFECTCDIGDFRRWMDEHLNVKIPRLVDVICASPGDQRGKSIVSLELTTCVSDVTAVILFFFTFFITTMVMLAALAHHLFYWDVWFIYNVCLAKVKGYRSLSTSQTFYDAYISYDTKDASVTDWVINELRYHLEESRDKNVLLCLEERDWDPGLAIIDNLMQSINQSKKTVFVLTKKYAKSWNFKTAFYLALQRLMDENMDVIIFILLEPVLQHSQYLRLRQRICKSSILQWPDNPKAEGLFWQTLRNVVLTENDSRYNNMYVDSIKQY
The data set is described as follows: Activation of human TLR8 expressed in HEK293 cells assessed as increase in NF-kappaB activation at 100 ug/ml by SEAP assay. In kind it is cell-based.

Take `Nc1ccn([C@@H]2O[C@H](COP(O)(=S)O[C@H]3[C@@H](O)[C@H](n4ccc(=O)[nH]c4=O)O[C@@H]3COP(O)(=S)O[C@H]3[C@@H](O)[C@H](n4ccc(N)nc4=O)O[C@@H]3COP(O)(=S)O[C@H]3[C@@H](O)[C@H](n4cnc5c(N)ncnc54)O[C@@H]3COP(O)(=S)O[C@H]3[C@@H](O)[C@H](n4cnc5c(=O)[nH]c(N)nc54)O[C@@H]3COP(O)(=S)O[C@H]3[C@@H](O)[C@H](n4ccc(=O)[nH]c4=O)O[C@@H]3COP(O)(=S)O[C@H]3[C@@H](O)[C@H](n4cnc5c(=O)[nH]c(N)nc54)O[C@@H]3COP(O)(=S)O[C@H]3[C@@H](O)[C@H](n4ccc(=O)[nH]c4=O)O[C@@H]3COP(O)(=S)O[C@H]3[C@@H](O)[C@H](n4cnc5c(=O)[nH]c(N)nc54)O[C@@H]3COP(O)(=S)O[C@H]3[C@@H](O)[C@H](n4ccc(=O)[nH]c4=O)O[C@@H]3COP(O)(=S)O[C@H]3[C@@H](O)[C@H](n4ccc(=O)[nH]c4=O)O[C@@H]3COP(O)(=S)O[C@H]3[C@@H](O)[C@H](n4cnc5c(=O)[nH]c(N)nc54)O[C@@H]3COP(O)(=S)O[C@H]3[C@@H](O)[C@H](n4ccc(=O)[nH]c4=O)O[C@@H]3COP(O)(=S)O[C@H]3[C@@H](O)[C@H](n4ccc(N)nc4=O)O[C@@H]3COP(O)(=S)O[C@H]3[C@@H](O)[C@H](n4ccc(=O)[nH]c4=O)O[C@@H]3COP(O)(=S)O[C@H]3[C@@H](O)[C@H](n4cnc5c(=O)[nH]c(N)nc54)O[C@@H]3COP(O)(=S)O[C@H]3[C@@H](O)[C@H](n4ccc(N)nc4=O)O[C@@H]3COP(O)(=S)O[C@H]3[C@@H](O)[C@H](n4ccc(N)nc4=O)O[C@@H]3COP(O)(=S)O[C@H]3[C@@H](O)[C@H](n4ccc(N)nc4=O)O[C@@H]3COP(O)(=S)O[C@H]3[C@@H](O)[C@H](n4cnc5c(=O)[nH]c(N)nc54)O[C@@H]3CO)[C@@H](O)[C@H]2O)c(=O)n1` (stereo partly specified): the result in data set [1] was inactive. In addition, the remaining at 10 min in data set [2] (read-out: Stability) was found to be 47%.

As for `Nc1ccn([C@@H]2O[C@H](COP(O)(=S)O[C@H]3[C@@H](O)[C@H](n4ccc(N)nc4=O)O[C@@H]3COP(O)(=S)O[C@H]3[C@@H](O)[C@H](n4cnc5c(=O)[nH]c(N)nc54)O[C@@H]3COP(O)(=S)O[C@H]3[C@@H](O)[C@H](n4ccc(N)nc4=O)O[C@@H]3COP(O)(=S)O[C@H]3[C@@H](O)[C@H](n4ccc(=O)[nH]c4=O)O[C@@H]3COP(O)(=S)O[C@H]3[C@@H](O)[C@H](n4cnc5c(N)ncnc54)O[C@@H]3COP(O)(=S)O[C@H]3[C@@H](O)[C@H](n4ccc(N)nc4=O)O[C@@H]3COP(O)(=S)O[C@H]3[C@@H](O)[C@H](n4cnc5c(N)ncnc54)O[C@@H]3COP(O)(=S)O[C@H]3[C@@H](O)[C@H](n4cnc5c(=O)[nH]c(N)nc54)O[C@@H]3COP(O)(=S)O[C@H]3[C@@H](O)[C@H](n4cnc5c(N)ncnc54)O[C@@H]3COP(O)(=S)O[C@H]3[C@@H](O)[C@H](n4cnc5c(N)ncnc54)O[C@@H]3CO)[C@@H](OP(O)(=S)OC[C@H]3O[C@@H](n4ccc(=O)[nH]c4=O)[C@H](O)[C@@H]3OP(O)(=S)OC[C@H]3O[C@@H](n4cnc5c(=O)[nH]c(N)nc54)[C@H](O)[C@@H]3OP(O)(=S)OC[C@H]3O[C@@H](n4cnc5c(=O)[nH]c(N)nc54)[C@H](O)[C@@H]3OP(O)(=S)OC[C@H]3O[C@@H](n4ccc(=O)[nH]c4=O)[C@H](O)[C@@H]3OP(O)(=S)OC[C@H]3O[C@@H](n4ccc(=O)[nH]c4=O)[C@H](O)[C@@H]3OP(O)(=S)OC[C@H]3O[C@@H](n4cnc5c(N)ncnc54)[C@H](O)[C@@H]3O)[C@H]2O)c(=O)n1` (stereo partly specified), the result in data set [1] was inactive. For the same molecule, the remaining at 10 min in data set [2] (read-out: Stability) was found to be 1%.

In the case of `Nc1ccn([C@@H]2O[C@H](CO)[C@@H](OP(O)(=S)OC[C@H]3O[C@@H](n4ccc(=O)[nH]c4=O)[C@H](O)[C@@H]3OP(O)(=S)OC[C@H]3O[C@@H](n4ccc(=O)[nH]c4=O)[C@H](O)[C@@H]3OP(O)(=S)OC[C@H]3O[C@@H](n4ccc(=O)[nH]c4=O)[C@H](O)[C@@H]3OP(O)(=S)OC[C@H]3O[C@@H](n4cnc5c(=O)[nH]c(N)nc54)[C@H](O)[C@@H]3OP(O)(=S)OC[C@H]3O[C@@H](n4cnc5c(=O)[nH]c(N)nc54)[C@H](O)[C@@H]3OP(O)(=S)OC[C@H]3O[C@@H](n4ccc(=O)[nH]c4=O)[C@H](O)[C@@H]3OP(O)(=S)OC[C@H]3O[C@@H](n4cnc5c(=O)[nH]c(N)nc54)[C@H](O)[C@@H]3OP(O)(=S)OC[C@H]3O[C@@H](n4ccc(=O)[nH]c4=O)[C@H](O)[C@@H]3OP(O)(=S)OC[C@H]3O[C@@H](n4cnc5c(=O)[nH]c(N)nc54)[C@H](O)[C@@H]3OP(O)(=S)OC[C@H]3O[C@@H](n4ccc(=O)[nH]c4=O)[C@H](O)[C@@H]3OP(O)(=S)OCC(O)COP(O)(=S)O[C@H]3[C@@H](O)[C@H](n4ccc(=O)[nH]c4=O)O[C@@H]3COP(O)(=S)O[C@H]3[C@@H](O)[C@H](n4cnc5c(=O)[nH]c(N)nc54)O[C@@H]3COP(O)(=S)O[C@H]3[C@@H](O)[C@H](n4ccc(=O)[nH]c4=O)O[C@@H]3COP(O)(=S)O[C@H]3[C@@H](O)[C@H](n4cnc5c(=O)[nH]c(N)nc54)O[C@@H]3COP(O)(=S)O[C@H]3[C@@H](O)[C@H](n4ccc(=O)[nH]c4=O)O[C@@H]3COP(O)(=S)O[C@H]3[C@@H](O)[C@H](n4cnc5c(=O)[nH]c(N)nc54)O[C@@H]3COP(O)(=S)O[C@H]3[C@@H](O)[C@H](n4cnc5c(=O)[nH]c(N)nc54)O[C@@H]3COP(O)(=S)O[C@H]3[C@@H](O)[C@H](n4ccc(=O)[nH]c4=O)O[C@@H]3COP(O)(=S)O[C@H]3[C@@H](O)[C@H](n4ccc(=O)[nH]c4=O)O[C@@H]3COP(O)(=S)O[C@H]3[C@@H](O)[C@H](n4ccc(=O)[nH]c4=O)O[C@@H]3COP(O)(=S)O[C@H]3[C@@H](O)[C@H](n4ccc(N)nc4=O)O[C@@H]3CO)[C@H]2O)c(=O)n1` (stereo partly specified), the remaining at 10 min in data set [2] (read-out: Activity) amounted to 79%. In addition, the result in data set [3] was inactive.

Values taken from ChEMBL document CHEMBL1156502, “Stabilized immune modulatory RNA compounds as agonists of Toll-like receptors 7 and 8” (Proc Natl Acad Sci U S A, 2007).
